Experimental data published in patent publication US20250376659A1, “DERIVATION OF SOMATOTROPHS FROM STEM CELLS AND USES THEREOF” (MEMORIAL SLOAN-KETTERING CANCER CENTER, priority 2017, published 2025).
“Also recorded” adds a separate entry of the source. No end group written: not given here.

B1: FGF8: activator of FGF signaling, dorsalizing agent (protein, UniProt P55075 23-233, looked up)
Fibroblast growth factor 8: QEGPGRGPALGRELASLFRAGREPQGVSQQHVREQSLVTDQLSRRLIRTYQLYSRTSGKHVQVLANKRINAMAEDGDPFAKLIVETDTFGSRVRVRGAETGLYICMNKKGKLIAKSNGKGKDCVFTEIVLENNYTALQNAKYEGWYMAFTRKGRPRKGSKTRQHQREVHFMKRLPRGHHTTEQSLRFEFLNYPPFTRSLRGSQRTWAPEPR
B2: IL10: interleukin (protein, UniProt P22301 19-178, looked up)
Interleukin-10: SPGQGTQSENSCTHFPGNLPNMLRDLRDAFSRVKTFFQMKDQLDNLLLKESLLEDFKGYLGCQALSEMIQFYLEEVMPQAENQDPDIKAHVNSLGENLKTLRLRLRRCHRFLPCENKSKAVEQVKNAFNKLQEKGIYKAMSEFDIFINYIEAYMTMKIRN

Assays:
[1] = system: Human ES or iPS cells; experiment: Marker gene expression during step-wise differentiation of human pluripotent stem cells to somatotrophs; type: cell-based; conditions: for GH1 expression: FIG. 6, 7A, 7B, 16; for GH1 expression / PIT1 expression: compared with the control group; for PIT1 expression: FIG. 4, FIG. 5, FIG. 16
Protocol: Human ES or iPS cells were expanded in E8 media on matrigel.
On day 0, cells were changed to E6 media where BMP4 (5 ng/ml) and SB43152 (10 μM) were added, with daily medium and factors change.
On day 3, BMP4 was removed and the following factors added: FGF8 (100 ng/ml); FGF10 (50 ng/ml); FGF18 (50 ng/ml); Sonic hedgehog (SHH) (100 ng/ml) or SAG (Smoothened Agonist) (100 nM); LDN193189 (250 nM). Media and factors were changed every other day.
Media and factors are changed every other day.
(§1) On day 15, the following factors were used: Retinoic acid (1 μM); Thyroid hormone T3 (10 nM); Dexamethasone (1 μM); cyclic AMP (100 μg/ml); DPN (0.1 nM); Growth Hormone Releasing Hormone (GHRH) (1 μM). Media and factors were changed every other day.
On day 29, the cells entered the maturation phase and could be maintained in the same factors for a variable period ranging from 1-4 weeks. […] They could be subjected to FACS sorting for GHRH in order to obtain a pure cell population of somatotrophs. Cells remained on matrigel for the duration of the protocol.
In order to derive GH cells, the strategy was to first differentiate human pluripotent stem cells to pre-placodal ectoderm and anterior pituitary progenitors. The cells were further differentiated to PROP1 lineage, and then to PIT1 lineage. The cells were then terminally differentiated to GH cells. The step-wise protocol to differentiate pluripotent stem cells into growth hormone secreting cells involved promoting Prop1 expression in anterior pituitary progenitors, activating POU1F1 (PIT1), directing cell differentiation to growth hormone expressing cells. The growth hormone expressing cells were also further matured via prolonged incubation. The key markers to monitor the process of differentiation comprised Prop1, POU1F1 (PIT1), GH and GHRHR.
For example, the first step was to induce non-neural ectoderm by BMP4 and inhibitor of TGF-β/Activin/NODAL pathway (e.g., SB431542). Then the cells were subjected to inhibitor of TGF-β/Activin/NODAL pathway (e.g., SB431542), FGF8/10/18, SHH agonist (e.g., SHH), and a SMAD inhibitor (e.g., LDN 193189) to induce anterior pituitary progenitors, which were characterized by PITX1/2, LHX3/4 and PROP1 expression.
For selective differentiation to somatotrophs, retinoic acid were used to suppress POMC expressed by corticotrophs and to promote GH1 expression which is expressed by somatotrophs. In addition, the corticosteroid (e.g., Dexamethasone) and thyroid hormone (e.g., T3) were added to the medium to inhibit PRL (expressed by lactotroph) and TSH (expressed by thyrotroph), while promoting GH1 expression.

[2] = system: rodent GSK3β homologs; conditions: cited from earlier work
[3] = system: somatotrophs; experiment: GHRH stimulation of stem-cell-derived GH cell population; type: cell-based, human; conditions: cell population after growth hormone induction, FIG. 8 lower right panel
Protocol: as §1
On day 29, the cells entered the maturation phase and could be maintained in the same factors for a variable period ranging from 1-4 weeks. Cells at this stage expressed GHRH receptors (GHRHR). They could be subjected to FACS sorting for GHRH in order to obtain a pure cell population of somatotrophs. Cells remained on matrigel for the duration of the protocol.
After this step, the majority population in culture were somatotrophs which expressed the somatotroph marker GH1 and secreted growth hormone in the supernatant. The phenotype of the population is shown FIG. 8. The cell population expressed high amount of GH and GHRHR, and low amount of TSH, PRL and LH. GH expression was further increased upon GHRH stimulation (FIG. 8, lower right panel).

Row | Molecule | GH1 expression [1] | PIT1 expression [1] | also measured
1 | N#CC(Cc1ccc(O)cc1)c1ccc(O)cc1 (stereo not drawn) [DPN, 2,3-bis(4-hydroxyphenyl) propionitrile, reference compound] | further promoted |  | 
2 | Cc1c[nH]c(-c2cnc(NCCNc3ccc(C#N)cn3)nc2-c2ccc(Cl)cc2Cl)n1 [CHIR99021, 6-(2-(4-(2,4-dichlorophenyl)-5-(4-methyl-1H-imidazol-2-yl)pyrimidin-2-ylamino)ethylamino) nicotinonitrile, reference compound] |  | induce | IC50 values against rodent GSK3β homologs [2]: nanomolar
3 | C[C@]12C[C@H](O)[C@H]3[C@@H](CCC4=CC(=O)CC[C@@]43C)[C@@H]1CC[C@@H]2C(=O)CO [corticosterone, reference compound] |  |  | PRL expression ([1]; FIG. 7D, p-value<0.01 compared with the control groups): significantly reduced
4 | GHRH: Growth Hormone Releasing Hormone, GHRH signaling pathway agonist (YADAIFTNSYRKVLGQLSARKLLQDIMSRQQGESNQERGARARL; ends and bridges not checked; UniProt P01286 32-75, looked up) | significantly increased; also recorded: further promoted |  | GH expression upon GHRH stimulation [3]: increased
5 | Ghrelin: Ghrelin signaling pathway agonist (GSSFLSPEHQRVQQRKESKKPPAKLQPR; ends and bridges not checked; UniProt Q9UBU3 24-51, looked up) | promoting |  | 
6 | IL 6: interleukin | increased | increased | 
7 | N[C@@H](Cc1cc(I)c(Oc2ccc(O)c(I)c2)c(I)c1)C(=O)O [T3, reference compound] |  |  | TSH-β expression ([1]; FIG. 7C, p-value<0.01 compared with the control groups): significantly reduced
8 | B1 |  | downregulated | PROP1 expression ([1]; FIG. 3, FIG. 5): maintained; POMC expression ([1]; FIG. 5): upregulated
9 | B2 | increased | increased | 
